The source of these data is US9060515B2, “Heterocyclic urea compounds” (BIOTA EUROPE LTD, priority 2011, dated 2015).

What all share (format): cell-based
In one experiment the test system is E. faecalis (ATCC 29212). Put plainly: Antibacterial susceptibility testing (MIC, broth microdilution or agar dilution), E. faecalis. As to conditions: Enterococcus faecalis, ATCC29212; read-out: E. faecalis (ATCC 29212) minimal inhibitory concentration (MIC). The procedure:
(§1) Compounds of the invention were tested for antimicrobial activity by susceptibility testing in liquid or on solid media. MICs for compounds against each strain were determined by the broth microdilution or agar dilution method according to the guidelines of the Clinical Laboratories and Standards Institute, formerly the National Committee for Clinical Laboratory Standards (Clinical Laboratories and Standards Institute. Methods for Dilution Antimicrobial Susceptibility Tests for Bacteria That Grow Aerobically; Approved Standard—Seventh Edition. Document M7-A7. CLSI, Wayne, Pa., 2006; Clinical Laboratories and Standards Institute. The Gram positive bacterial strains tested include S. aureus (Staphylococcus aureus (Isolate ID ATCC 29213)), E. faecalis (Enterococcus faecalis (Isolate ID ATCC 29212)) and S. pyogenes (Streptococcus pyogenes (Isolate ID ATCC 51339)). The Gram negative bacterial strains tested include H. influenzae (Haemophilus influenzae (Isolate ID ATCC 49247)).
(Broth dilution looks for growth in wells or tubes with falling amounts of substance.)

The next experiment relates to S. aureus (ATCC 29213). Put plainly: Antibacterial susceptibility testing (MIC, broth microdilution or agar dilution), S. aureus. As to conditions: Staphylococcus aureus, ATCC29213; read-out: S. aureus (ATCC 29213) minimal inhibitory concentration (MIC). The procedure: as §1
The subject of another experiment is S. pyogenes (ATCC 51339). Description: Antibacterial susceptibility testing (MIC, broth microdilution or agar dilution), S. pyogenes. To be noted: Streptococcus pyogenes, ATCC51339; read-out: S. pyogenes (ATCC 51339) minimal inhibitory concentration (MIC). On the procedure:
as §1

Structures are written as SMILES. ≈ marks a conversion by molar mass, not a printed value. Bounds are passed on as bounds.

As to `CCNC(=O)Nc1cc(Nc2ccccc2)c(C(=O)Nc2ccnc(C(=O)OC)c2)cn1` [Compound 21, methyl 4-(6-(3-ethylureido)-4-(phenylamino)nicotinamido)picolinate], the MIC in the experiment on E. faecalis (ATCC 29212) is at most 1 µg/mL.
On the same count and under the same terms, to `CCNC(=O)Nc1cc(Nc2ccccc2)c(C(=O)Nc2ccc(-n3cncn3)nc2)cn1` [Compound 27, N-(6-(1H-1,2,4-triazol-1-yl)pyridin-3-yl)-6-(3-ethylureido)-4-(phenylamino)nicotinamide] belongs at most 1 µg/mL.
On to `CCNC(=O)Nc1cc(Nc2ccccc2)c(C(=O)Nc2ccc(NC(C)C)nc2)cn1` [Compound 95, 6-(3-ethylureido)-N-(6-(isopropylamino)pyridin-3-yl)-4-(phenylamino)nicotinamide], for which the values for the MIC with S. aureus (ATCC 29213) and in the experiment with S. pyogenes (ATCC 51339) were 2 µg/mL (≈ 4.61 µM) and at most 1 µg/mL, respectively.
The matching figures for `CCNC(=O)Nc1cc(Nc2ccc(C(=O)OC)cc2)c(C(=O)Nc2cccnc2)cn1` [Compound 96, methyl 4-(2-(3-ethylureido)-5-(pyridin-3-ylcarbamoyl)pyridin-4-ylamino)benzoate]: at most 1 µg/mL and at most 1 µg/mL.
For `CCNC(=O)Nc1cc(Nc2cccc(C(=O)OC)c2)c(C(=O)Nc2cccnc2)cn1` [Compound 97, methyl 3-(2-(3-ethylureido)-5-(pyridin-3-ylcarbamoyl)pyridin-4-ylamino)benzoate], the MIC in the experiment with S. aureus (ATCC 29213) was found to be 2 µg/mL (≈ 4.6 µM); in the experiment with S. pyogenes (ATCC 51339), 32 µg/mL (≈ 73.7 µM).
For `CCNC(=O)Nc1cc(Nc2ccccc2)c(C(=O)Nc2ccc(N(C)C)nc2)cn1` [Compound 98, N-(6-(dimethylamino)pyridin-3-yl)-6-(3-ethylureido)-4-(phenylamino)nicotinamide], the MIC in the experiment on S. aureus (ATCC 29213) and with S. pyogenes (ATCC 51339) was at most 1 µg/mL each time.
Regarding `CCNC(=O)Nc1cc(Nc2ccccc2)c(C(=O)Nc2ccc(=O)n(C)c2)cn1` [Compound 99, 6-(3-ethylureido)-N-(1-methyl-6-oxo-1,6-dihydropyridin-3-yl)-4-(phenylamino)nicotinamide], the MIC was 16 µg/mL (≈ 39.4 µM) with S. aureus (ATCC 29213) and at most 1 µg/mL in the experiment with S. pyogenes (ATCC 51339).
The matching figures for `CCNC(=O)Nc1cc(Nc2ccccc2)c(C(=O)Nc2ccc(N3CCC(O)CC3)nc2)cn1` [Compound 100, 6-(3-ethylureido)-N-(6-(4-hydroxypiperidin-1-yl)pyridin-3-yl)-4-(phenylamino)nicotinamide]: 2 µg/mL (≈ 4.21 µM) and at most 1 µg/mL.
The matching figures for `CCNC(=O)Nc1cc(Nc2ccccc2)c(C(=O)Nc2ccc(C#N)nc2)cn1` [Compound 104, N-(6-cyanopyridin-3-yl)-6-(3-ethylureido)-4-(phenylamino)nicotinamide]: 2 µg/mL (≈ 4.98 µM) and at most 1 µg/mL.
The matching figures for `CCNC(=O)Nc1cc(Nc2ccccc2Cl)c(C(=O)Nc2cccnc2)cn1` [Compound 105, 4-(2-chlorophenylamino)-6-(3-ethylureido)-N-(pyridin-3-yl)nicotinamide]: at most 1 µg/mL and at most 1 µg/mL.
With `CCNC(=O)Nc1cc(Nc2ccc(Cl)cc2)c(C(=O)Nc2cccnc2)cn1` [Compound 106, 4-(4-chlorophenylamino)-6-(3-ethylureido)-N-(pyridin-3-yl)nicotinamide], the MIC in the experiment on S. aureus (ATCC 29213) and with S. pyogenes (ATCC 51339) was at most 1 µg/mL throughout.
Take `CCNC(=O)Nc1cc(Nc2cccc(Cl)c2)c(C(=O)Nc2cccnc2)cn1` [Compound 107, 4-(3-chlorophenylamino)-6-(3-ethylureido)-N-(pyridin-3-yl)nicotinamide]: the MIC in the experiment with S. aureus (ATCC 29213) was at most 1 µg/mL; in the experiment on S. pyogenes (ATCC 51339), 2 µg/mL (≈ 4.87 µM).
As to `CCNC(=O)Nc1cc(Nc2ccccc2OC)c(C(=O)Nc2cccnc2)cn1` [Compound 109, 6-(3-ethylureido)-4-(2-methoxyphenylamino)-N-(pyridin-3-yl)nicotinamide], the results for the MIC with S. aureus (ATCC 29213) and in the experiment with S. pyogenes (ATCC 51339) were 2 µg/mL (≈ 4.92 µM) and at most 1 µg/mL, respectively.
The matching figures for `CCNC(=O)Nc1cc(Nc2ccc(CC(=O)OCC)cc2)c(C(=O)Nc2cccnc2)cn1` [Compound 110, ethyl 2-(4-(2-(3-ethylureido)-5-(pyridin-3-ylcarbamoyl)pyridin-4-ylamino)phenyl)acetate]: 4 µg/mL (≈ 8.65 µM) and 4 µg/mL (≈ 8.65 µM).
Turning to `CCNC(=O)Nc1cc(Nc2cccc(OC)c2)c(C(=O)Nc2cccnc2)cn1` [Compound 111, 6-(3-ethylureido)-4-(3-methoxyphenylamino)-N-(pyridin-3-yl)nicotinamide], the MIC with S. aureus (ATCC 29213) and with S. pyogenes (ATCC 51339) was at most 1 µg/mL each time.
For the compound `CCNC(=O)Nc1cc(Nc2cnn(C)c2)c(C(=O)Nc2cccnc2)cn1` [Compound 113, 6-(3-ethylureido)-4-(1-methyl-1H-pyrazol-4-ylamino)-N-(pyridin-3-yl)nicotinamide], the MIC with S. aureus (ATCC 29213) was 32 µg/mL (≈ 84.1 µM); with S. pyogenes (ATCC 51339), 4 µg/mL (≈ 10.5 µM).
The matching figures for `CCNC(=O)Nc1cc(Nc2c(C)noc2C)c(C(=O)Nc2cccnc2)cn1` [Compound 115, 4-(3,5-dimethylisoxazol-4-ylamino)-6-(3-ethylureido)-N-(pyridin-3-yl)nicotinamide]: 32 µg/mL (≈ 80.9 µM) and 8 µg/mL (≈ 20.2 µM).
For the compound `CCNC(=O)Nc1cc(Nc2ccn(C)n2)c(C(=O)Nc2cccnc2)cn1` [Compound 116, 6-(3-ethylureido)-4-(1-methyl-1H-pyrazol-3-ylamino)-N-(pyridin-3-yl)nicotinamide], the MIC was 4 µg/mL (≈ 10.5 µM) in the experiment with S. aureus (ATCC 29213) and at most 1 µg/mL in the experiment on S. pyogenes (ATCC 51339).
The matching figures for `CCNC(=O)Nc1cc(Nc2ccccc2)c(C(=O)Nc2ccc(CCCO)cc2)cn1` [Compound 117, 6-(3-ethylureido)-N-(4-(3-hydroxypropyl)phenyl)-4-(phenylamino)nicotinamide]: at most 1 µg/mL and at most 1 µg/mL.
The matching figures for `CCNC(=O)Nc1cc(Nc2ccccc2)c(C(=O)Nc2ccc(CCC(N)=O)cc2)cn1` [Compound 118, N-(4-(3-amino-3-oxopropyl)phenyl)-6-(3-ethylureido)-4-(phenylamino)nicotinamide]: 2 µg/mL (≈ 4.48 µM) and at most 1 µg/mL.
In the same order, the values of `CCNC(=O)Nc1cc(Nc2ccccc2)c(C(=O)Nc2ccc(CCC(=O)N(C)C)cc2)cn1` [Compound 119, N-(4-(3-(dimethylamino)-3-oxopropyl)phenyl)-6-(3-ethylureido)-4-(phenylamino)nicotinamide] are at most 1 µg/mL and at most 1 µg/mL.
As for `CCNC(=O)Nc1cc(Nc2ccccc2)c(C(=O)Nc2ccc(CCC(=O)NC)cc2)cn1` [Compound 120, 6-(3-ethylureido)-N-(4-(3-(methylamino)-3-oxopropyl)phenyl)-4-(phenylamino)nicotinamide], the MIC in the experiment with S. aureus (ATCC 29213) was 2 µg/mL (≈ 4.34 µM); in the experiment on S. pyogenes (ATCC 51339), at most 1 µg/mL.
`CCNC(=O)Nc1cc(Nc2ccccc2)c(C(=O)Nc2ccc(CCC(C)=O)cc2)cn1` [Compound 122, 6-(3-Ethylureido)-N-(4-(3-oxobutyl)phenyl)-4-(phenylamino)nicotinamide]: the MIC in the experiment on S. aureus (ATCC 29213) and in the experiment on S. pyogenes (ATCC 51339) was at most 1 µg/mL in each case.
For the compound `CCNC(=O)Nc1cc(Nc2ccc(CO)cc2)c(C(=O)Nc2cccnc2)cn1` [Compound 128, 6-(3-ethylureido)-4-(4-(hydroxymethyl)phenylamino)-N-(pyridin-3-yl)nicotinamide], the values for the MIC with S. aureus (ATCC 29213) and with S. pyogenes (ATCC 51339) were 8 µg/mL (≈ 19.7 µM) and at most 1 µg/mL, respectively.
The matching figures for `CCNC(=O)Nc1cc(Nc2ccccc2)c(C(=O)Nc2ccc(CC(C)(C)C(=O)OC)cc2)cn1` [Compound 129]: 2 µg/mL (≈ 4.09 µM) and at most 1 µg/mL.
Consider `CCNC(=O)Nc1cc(Nc2ccc(CCC(=O)OCC)cc2)c(C(=O)Nc2cccnc2)cn1` [Compound 131, ethyl 3-(4-(2-(3-ethylureido)-5-(pyridin-3-ylcarbamoyl)pyridin-4-ylamino)phenyl)propanoate], for which the MIC in the experiment on S. aureus (ATCC 29213) stood at 8 µg/mL (≈ 16.8 µM); in the experiment on S. pyogenes (ATCC 51339), 4 µg/mL (≈ 8.39 µM).
For `CCNC(=O)Nc1cc(Nc2ccc(Cl)cc2)c(C(=O)Nc2ccc(-n3cccc3C(=O)OC)cc2)cn1` [Compound 197, methyl 1-{4-[({4-[(4-chlorophenyl)amino]-6-[(ethylcarbamoyl)amino]pyridin-3-yl}carbonyl)amino]phenyl}-1H-pyrrole-2-carboxylate], in the experiment with E. faecalis (ATCC 29212), the MIC was 4 µg/mL (≈ 7.5 µM).
Still for that read-out and setting: to `CCNC(=O)Nc1cc(Nc2ccccc2)c(C(=O)Nc2ccc(CP(=O)(O)O)cc2)cn1` [Compound 207, {4-[({6-[(ethylcarbamoyl)amino]-4-(phenylamino)pyridin-3-yl}carbonyl)amino]benzyl}phosphonic acid] belongs 8 µg/mL (≈ 17 µM).
On the same count and under the same terms, to `CCNC(=O)Nc1cc(Nc2ccccc2)c(C(=O)Nc2ccccc2)nn1` [Compound 212, 6-[(ethylcarbamoyl)amino]-N-phenyl-4-(phenylamino)pyridazine-3-carboxamide] belongs 8 µg/mL (≈ 21.3 µM); to `CCNC(=O)Nc1cc(Nc2cccc(F)c2)c(C(=O)Nc2ccc(CCC(=O)OCC)cc2)cn1` [Compound 216, ethyl 3-{4-[({6-[(ethylcarbamoyl)amino]-4-[(3-fluorophenyl)amino]pyridin-3-yl}carbonyl)amino]phenyl}propanoate], at most 1 µg/mL; to `CCNC(=O)Nc1cc(Nc2ccc(C)c(F)c2)c(C(=O)Nc2ccc(CCC(=O)OCC)cc2)cn1` [Compound 217, ethyl 3-{4-[({6-[(ethylcarbamoyl)amino]-4-[(3-fluoro-4-methylphenyl)amino]pyridin-3-yl}carbonyl)amino]phenyl}propanoate], at most 1 µg/mL.
